Patent US6022561A, “Bilayers preparations” (Scotia Lipidteknik AB, priority 1994, dated 2000)
Counter-ions that a name gives are not always drawn.

Legend:
human whole blood = test: Test 4. In vitro haemolysis test; type: cell-based; settings: Li-GLA dissolved in 0.9% saline
Experimental: The samples were then incubated at 37° C. in an oxygen:carbon dioxide, 95:5, enriched atmosphere, 3 l/min, for 1 h, with constant gentle shaking. […] All samples were then spun for 2 min in an Eppendorf Microfuge (Brinkman Instruments Ltd, Canada) and finally analyzed on a centrifugal analyser (Cobas Bioanalyser; Hoffmann-La Roche Ltd, Canada) with UV scan of 540 nm.

haemolysis = test: Haemolysis in vivo, preliminary studies; set-up: species or system rats
cancer cells = test: Activity against cancer cells in vitro; type: cell-based

Question: What does the source list for CCCCC/C=C\C/C=C\C/C=C\CCCCC(=O)O [Li-GLA, lithium salt of gammalinolenic acid]?
Answer: Concentration causing 100% haemolysis (human whole blood): 4000 to 5000 µM; "Red urine" in rats (haemolysis): does; Activity against cancer cells in vitro, free vs liposomal Li-GLA (cancer cells): almost identical
